In patent US20140005163A1 (NOVARTIS AG, priority 2010, published 2014):

Key:
PI3K alpha = molecular target: T1, PI3K alpha (Homo sapiens, UniProt P42336); test: PI3K alpha kinase assay (Kinase-Glo luminescence); assay type: biochemical
T1 construct: p85(iSH2) fusion partner (see partner chain) (N); His tag (C); made in house; host or cells: baculovirus; Tn5 (Trichoplusia ni) or TiniPro insect cells
Description: (§1) In a more preferred assay, the kinase reaction is performed in a final volume of 10 μL per well of a low volume non binding CORNING, 384 well black plate (Cat. No. #3676). The final concentrations of ATP and phosphatidyl inositol (PI) in the assay are 1 μM and 10 μg/mL respectively. The reaction is started by the addition of ATP.
(§2) The components of the assay are added per well as follows:
(§3) […] in 90% DMSO per well, in columns 1-20, 8 concentrations (1/3 and 1/3.33 serial dilution step) in single. • Low control: […] of 90% DMSO in half the wells of columns 23-24 (0.45% in final). • High control: […] of reference compound (e.g. compound of Example 7 in WO 2006/122806) in the other half of columns 23-24 (2.5 μM in final). • Standard: […] of reference compound as just mentioned diluted as the test compounds in columns 21-22 • 20 mL ‘buffer’ are prepared per assay: • 200 μL of 1M TRIS HCl pH7.5 (10 mM in final) • 60 μL of 1M MgCl2 (3 mM in final) • 500 μL of 2M NaCl (50 mM in final) • 100 μL of 10% CHAPS (0.05% in final) • 200 μL of 100 mM DTT (1 mM in final) • 18.94 mL of nanopure water • 10 mL ‘PI’ are prepared per assay: • 200 μL of 1 mg/ml L-alpha-Phosphatidylinositol (Liver Bovine, Avanti Polar Lipids Cat. No. 840042C MW=909.12) prepared in 3% OctylGlucoside (10 μg/ml in final) • 9.8 mL of ‘buffer’ • 10 mL ‘ATP’ are prepared per assay: • 6.7 μL of 3 mM stock of ATP giving a final concentration of 1 μM per well • 10 mL of ‘buffer’ • 2.5 mL of each PI3K construct are prepared per assay in ‘PI’ with the following final concentration: • 10 nM PI3K alfa EMV B1075 • 25 nM beta EMV BV949 • 10 nM delta EMV BV1060 • 150 nM gamma EMV BV950 • 5 μL of ‘PI/PI3K’ are added per well. • 5 μl ‘ATP’ are added per well to start the reaction. • The plates are then incubated at room temperature for 60 minutes (alfa, beta, delta) or 120 minutes (gamma). • The reaction is terminated by the addition of 10 μL Kinase-Glo (Promega Cat. No. #6714). • The assay plates are read after 10 minutes in Synergy 2 reader (BioTek, Vermont USA) with an integration time of 100 milliseconds and sensitivity set to 191. • Output: The High control is around 60'000 counts and the Low control is 30'000 or lower • This luminescence assay gives a useful Z′ ratio between 0.4 and 0.7
Two different constructs, BV 1052 and BV 1075, are used to generate the PI3 Kinase a proteins for compound screening.
(§4) IC50 is determined by a four parameter curve fitting routine that comes along with “excel fit”. […] Alternatively, IC50 values are calculated using idbsXLfit model 204, which is a 4 parameter logistic model.

PI3K beta = molecular target: T2, PI3K beta (Homo sapiens, UniProt P42338); test: PI3K beta kinase assay (Kinase-Glo luminescence); assay type: biochemical
T2 construct: for the full-length p110-b subunit are generated and fused by overlapping PCR; p85(iSH2) fusion partner (see partner chain) (N); His tag (C); made in house; host or cells: baculovirus; Tn5 (Trichoplusia ni) or TiniPro insect cells
T2 sequence (P42338 with tags, fused parts or gaps limits assumed): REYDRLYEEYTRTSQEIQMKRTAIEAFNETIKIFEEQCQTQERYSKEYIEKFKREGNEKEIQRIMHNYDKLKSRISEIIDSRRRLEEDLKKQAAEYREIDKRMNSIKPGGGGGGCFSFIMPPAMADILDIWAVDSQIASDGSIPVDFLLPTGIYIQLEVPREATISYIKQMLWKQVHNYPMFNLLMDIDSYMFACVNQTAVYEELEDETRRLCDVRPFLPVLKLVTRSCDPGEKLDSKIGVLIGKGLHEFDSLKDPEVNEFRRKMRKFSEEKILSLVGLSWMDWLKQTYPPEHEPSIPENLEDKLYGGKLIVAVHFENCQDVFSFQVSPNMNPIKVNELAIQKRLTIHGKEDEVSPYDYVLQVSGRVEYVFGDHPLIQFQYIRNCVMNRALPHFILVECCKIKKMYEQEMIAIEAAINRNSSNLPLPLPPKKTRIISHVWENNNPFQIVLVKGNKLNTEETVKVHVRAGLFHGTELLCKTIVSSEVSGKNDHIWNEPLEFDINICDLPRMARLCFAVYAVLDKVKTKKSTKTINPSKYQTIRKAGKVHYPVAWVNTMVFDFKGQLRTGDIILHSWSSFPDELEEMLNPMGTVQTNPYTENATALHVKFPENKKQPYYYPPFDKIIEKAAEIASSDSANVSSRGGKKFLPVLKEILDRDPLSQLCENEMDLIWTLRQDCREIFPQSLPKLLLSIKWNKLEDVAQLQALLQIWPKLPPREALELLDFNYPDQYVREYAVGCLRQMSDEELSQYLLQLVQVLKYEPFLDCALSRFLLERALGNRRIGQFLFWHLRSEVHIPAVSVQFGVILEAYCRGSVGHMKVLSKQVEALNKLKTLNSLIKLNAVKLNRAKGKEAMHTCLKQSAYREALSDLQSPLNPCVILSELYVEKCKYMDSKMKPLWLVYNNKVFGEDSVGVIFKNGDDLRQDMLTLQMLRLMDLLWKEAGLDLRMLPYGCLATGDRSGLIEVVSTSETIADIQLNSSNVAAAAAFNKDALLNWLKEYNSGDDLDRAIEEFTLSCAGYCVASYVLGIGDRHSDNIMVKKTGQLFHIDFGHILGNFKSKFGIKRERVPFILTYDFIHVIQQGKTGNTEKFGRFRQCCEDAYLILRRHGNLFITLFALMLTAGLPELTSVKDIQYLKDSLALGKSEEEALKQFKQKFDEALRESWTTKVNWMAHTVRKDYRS
Description: as §1, §2, §3
PI3Kβ BV-949 p85(iSH2)-Gly Linker-p110b(Full-Length)-C-Term his Tag
as §4

PI3K delta = molecular target: T3, PI3K delta (Homo sapiens, UniProt O00329); test: PI3K delta kinase assay (Kinase-Glo luminescence); assay type: biochemical
T3 construct: for the full-length p110-d subunit are generated and fused by overlapping PCR; p85(iSH2) fusion partner (see partner chain) (N); His tag (C); made in house; host or cells: baculovirus; Tn5 (Trichoplusia ni) or TiniPro insect cells
T3 sequence (O00329 with tags, fused parts or gaps limits assumed): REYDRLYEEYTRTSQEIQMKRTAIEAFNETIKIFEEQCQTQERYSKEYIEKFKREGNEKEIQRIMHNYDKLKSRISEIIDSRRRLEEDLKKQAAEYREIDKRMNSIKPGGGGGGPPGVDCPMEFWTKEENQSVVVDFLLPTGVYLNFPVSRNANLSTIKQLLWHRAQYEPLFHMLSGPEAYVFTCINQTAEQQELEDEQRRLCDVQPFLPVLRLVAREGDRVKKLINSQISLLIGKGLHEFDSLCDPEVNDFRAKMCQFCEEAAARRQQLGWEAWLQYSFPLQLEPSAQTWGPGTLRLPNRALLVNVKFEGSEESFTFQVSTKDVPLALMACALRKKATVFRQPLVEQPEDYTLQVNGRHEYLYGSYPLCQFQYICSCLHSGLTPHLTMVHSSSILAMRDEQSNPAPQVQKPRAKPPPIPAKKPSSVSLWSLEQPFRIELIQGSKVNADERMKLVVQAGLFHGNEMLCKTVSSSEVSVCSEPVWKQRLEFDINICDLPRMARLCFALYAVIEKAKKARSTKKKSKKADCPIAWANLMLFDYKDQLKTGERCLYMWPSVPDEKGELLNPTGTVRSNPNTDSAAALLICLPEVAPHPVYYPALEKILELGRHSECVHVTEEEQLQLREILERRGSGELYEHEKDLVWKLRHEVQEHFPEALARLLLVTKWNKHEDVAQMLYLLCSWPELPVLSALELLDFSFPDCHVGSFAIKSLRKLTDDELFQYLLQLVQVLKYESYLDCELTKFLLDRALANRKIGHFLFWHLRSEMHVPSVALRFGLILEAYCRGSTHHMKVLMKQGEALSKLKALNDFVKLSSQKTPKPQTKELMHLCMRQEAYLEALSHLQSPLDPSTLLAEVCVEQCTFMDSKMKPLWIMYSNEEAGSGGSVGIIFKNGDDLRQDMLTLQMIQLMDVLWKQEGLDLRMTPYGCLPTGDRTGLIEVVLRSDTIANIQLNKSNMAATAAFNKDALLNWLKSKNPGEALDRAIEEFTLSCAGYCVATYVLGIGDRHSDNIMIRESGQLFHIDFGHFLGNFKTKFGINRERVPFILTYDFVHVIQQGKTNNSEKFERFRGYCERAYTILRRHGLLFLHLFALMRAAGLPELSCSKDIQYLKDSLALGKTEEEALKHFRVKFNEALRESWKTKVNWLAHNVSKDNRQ
Description: as §1, §2, §3
PI3Kγ BV-1060 p85(iSH2)-Gly Linker-p110d(Full-Length)-C-Term his Tag
as §4

mTOR = molecular target: T4, mTOR (Homo sapiens, UniProt P42345); test: Biochemical assay for m-TOR by TR-FRET; details: 8 μM ATP, 400 nM GFP-4EBP1, 0.5 nM mTOR
T4 construct: purchased Invitrogen Corporation (Carlsbad/CA, USA) PV4753
T4 sequence (P42345 1360-2549 limits assumed): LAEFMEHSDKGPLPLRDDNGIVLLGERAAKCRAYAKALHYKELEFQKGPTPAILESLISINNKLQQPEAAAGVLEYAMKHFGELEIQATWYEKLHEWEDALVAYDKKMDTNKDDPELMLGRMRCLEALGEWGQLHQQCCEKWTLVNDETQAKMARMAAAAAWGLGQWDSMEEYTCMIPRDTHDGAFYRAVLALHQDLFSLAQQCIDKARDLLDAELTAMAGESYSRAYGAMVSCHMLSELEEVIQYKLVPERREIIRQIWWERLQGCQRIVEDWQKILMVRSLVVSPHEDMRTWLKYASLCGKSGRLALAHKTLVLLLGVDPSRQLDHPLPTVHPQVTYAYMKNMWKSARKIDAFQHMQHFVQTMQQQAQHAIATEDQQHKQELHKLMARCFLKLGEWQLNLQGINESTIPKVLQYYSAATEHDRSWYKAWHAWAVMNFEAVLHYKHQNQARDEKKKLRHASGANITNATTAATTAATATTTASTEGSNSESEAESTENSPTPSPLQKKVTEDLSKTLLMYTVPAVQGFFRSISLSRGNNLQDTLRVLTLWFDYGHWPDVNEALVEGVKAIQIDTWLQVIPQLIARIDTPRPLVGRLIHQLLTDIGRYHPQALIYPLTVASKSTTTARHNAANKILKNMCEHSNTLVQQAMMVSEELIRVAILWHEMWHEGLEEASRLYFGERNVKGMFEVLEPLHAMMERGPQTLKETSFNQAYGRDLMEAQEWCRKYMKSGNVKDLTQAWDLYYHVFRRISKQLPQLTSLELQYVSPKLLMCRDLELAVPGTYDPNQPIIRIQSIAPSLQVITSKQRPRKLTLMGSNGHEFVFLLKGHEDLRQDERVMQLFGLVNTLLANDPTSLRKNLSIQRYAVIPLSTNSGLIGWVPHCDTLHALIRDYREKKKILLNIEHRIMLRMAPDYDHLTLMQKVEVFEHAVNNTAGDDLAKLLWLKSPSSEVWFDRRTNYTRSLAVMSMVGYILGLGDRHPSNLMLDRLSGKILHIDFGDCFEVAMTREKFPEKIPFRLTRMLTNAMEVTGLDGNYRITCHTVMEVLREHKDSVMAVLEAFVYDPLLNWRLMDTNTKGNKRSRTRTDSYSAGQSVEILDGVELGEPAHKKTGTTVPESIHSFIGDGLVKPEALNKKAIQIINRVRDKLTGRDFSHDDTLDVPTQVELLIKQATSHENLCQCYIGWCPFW
Description: Biochemical Assay for m-TOR by TR-FRET.
Assay components are purchased from Invitrogen Corporation (Carlsbad/CA, USA): GFP-4EBP1 (Cat. No. PV4759), Tb3+-α-p4EBP1 [pThr46] Antibody (Cat. No. PV4757), proprietary TR-FRET dilution buffer (Cat. No. PV3574), mTOR protein (Cat. No. PV4753).
Then 5 μL of ATP (8 μM final concentration) and GFP-4EBP1 (400 nM final concentration) with 5 μL mTOR proteins (0.5 nM final concentration) are incubated at rt. The standard reaction buffer for the TR-FRET mTOR assay contained 50 mM HEPES pH 7.5, 10 mM MnCl2, 50 mM NaCl, 1 mM EGTA, 1 mM DTT. Reactions were stopped with 10 μL of a mixture of EDTA containing the Tb3+-α-p4EBP1-[pT46] detection Ab (0.5 nM) in TR-FRET dilution buffer (proprietary to IVG). Plates are read 15 mins later in a Synergy2 reader using an integration time of 0.2 seconds and a delay of 0.1 seconds. […] A standard compound is used as a reference compound and included in all assay plates in the form of 16 dilution points in duplicate.

[1] = test system: PKB Ser473 phosphorylation in Rat1-myr-HA-p110 beta cells; test: Reverse protein array assay, PKB Ser473 phosphorylation in Rat1-myr-p110 beta cells; assay type: cell-based; details: 0.5 h, pAkt Ser473, 30 minutes incubation, read-out: p-PKB IC50
Description: (§5) The Rat1-myr-HA-p110 alpha, beta and delta cells were trypsinized and counted with a CASY TT cell counter (Schärfe System GmbH, Reutlingen Germany). […] The plates were incubated at 37° C. and 5% CO2 under humidified condition for at least 20 h. Compound of formula I working solutions were prepared freshly as serial 8 step dilutions (vol/vol) in DMSO on the day of the experiment. […] The final DMSO concentration was kept constant at 0.2%. cell culture medium containing 0.2% DMSO was used as vehicle treatment control. Post incubation, the cells were treated with the serial compound dilution. 50 μl of the compound medium mixture was added to the wells containing cells and 150 μl DMEM medium and incubated for 30 minutes (37° C., 5% CO2). After 30 minutes of incubation, the medium mixture was quickly removed by aspiration. […] 50 μl of the described lysis buffer mix was added to each well, followed by 10 minutes of incubation on ice.
(§6) The samples were spotted onto ZeptoMARKt PWG protein microarray chips (Zeptosens, Witterswil, Switzerland) with the piezoelectric microdispense-based, non-contact Nano-Plotter 2.1 (GeSiM, Grosserkmannsdorf, Germany). Each sample was spotted at 4 different sample concentrations (d1=100%, d2=75%, d3=50%, d4=25%) by diluting the cell lysate with the corresponding volume of lysis buffer mix. After spotting the ZeptoMARK® protein microarrays, the chips are incubated for 1 hour at 37° C. […] After 20 minutes of blocking the chips are extensively rinsed with deionized water (Milli-Q quality, 18MΩ×cm) and dried in a nitrogen air flow.
(§7) After incubation, the arrays were washed twice with 200 μl CAB1 buffer. […] The fluorescence signal was assessed with exposure times of 1, 3, 5 and 10 seconds, depending on the intensity of the signal. The resulting four images taken per array are stored as 16-bit TIF files.
(§8) The fluorescence images for each array were analyzed with the ZeptoVIEW Pro 2.0 software (Zeptosens, Witterswil, Switzerland) and the relative fluorescence intensity for each signal was calculated.

[2] = test system: PKB Ser473 phosphorylation in Rat1-myr-HA-p110 delta cells; test: Reverse protein array assay, PKB Ser473 phosphorylation in Rat1-myr-p110 delta cells; assay type: cell-based; details: read-out: p-PKB IC50
Description: as §5, §6, §7, §8

[3] = test system: PKB Ser473 phosphorylation in Rat1-myr-HA-p110 alpha cells; test: Reverse protein array assay, PKB Ser473 phosphorylation in Rat1-myr-p110 alpha cells; assay type: cell-based; details: 0.5 h, pAkt Ser473, 30 minutes compound incubation, read-out: p-PKB IC50
Description: as §5, §6, §7, §8

[4] = test system: S6 Ribosomal Protein phosphorylation Ser235/236 in TSC1 null mouse embryo fibroblast (MEF) cells; test: Reverse protein array assay, S6 Ribosomal Protein phosphorylation Ser235/236 in TSC1 null MEF cells; assay type: cell-based; details: 1 h, pS6 ribosomal protein Ser235/236, 60 minutes incubation, read-out: p-S6 IC50
Description: as §5, with “TSC1−/−” for “Rat1-myr-HA-p110 alpha, beta and delta”, “(Schirfe” for “(Schärfe”, “Working” for “Compound of formula I working”, “0.02%.” for “0.2%.”, “0.02%” for “0.2%”, “60” for “30”
The spotting of the chips follows the previous described method.

T1 sequence (P42336 with tags, fused parts or gaps limits assumed): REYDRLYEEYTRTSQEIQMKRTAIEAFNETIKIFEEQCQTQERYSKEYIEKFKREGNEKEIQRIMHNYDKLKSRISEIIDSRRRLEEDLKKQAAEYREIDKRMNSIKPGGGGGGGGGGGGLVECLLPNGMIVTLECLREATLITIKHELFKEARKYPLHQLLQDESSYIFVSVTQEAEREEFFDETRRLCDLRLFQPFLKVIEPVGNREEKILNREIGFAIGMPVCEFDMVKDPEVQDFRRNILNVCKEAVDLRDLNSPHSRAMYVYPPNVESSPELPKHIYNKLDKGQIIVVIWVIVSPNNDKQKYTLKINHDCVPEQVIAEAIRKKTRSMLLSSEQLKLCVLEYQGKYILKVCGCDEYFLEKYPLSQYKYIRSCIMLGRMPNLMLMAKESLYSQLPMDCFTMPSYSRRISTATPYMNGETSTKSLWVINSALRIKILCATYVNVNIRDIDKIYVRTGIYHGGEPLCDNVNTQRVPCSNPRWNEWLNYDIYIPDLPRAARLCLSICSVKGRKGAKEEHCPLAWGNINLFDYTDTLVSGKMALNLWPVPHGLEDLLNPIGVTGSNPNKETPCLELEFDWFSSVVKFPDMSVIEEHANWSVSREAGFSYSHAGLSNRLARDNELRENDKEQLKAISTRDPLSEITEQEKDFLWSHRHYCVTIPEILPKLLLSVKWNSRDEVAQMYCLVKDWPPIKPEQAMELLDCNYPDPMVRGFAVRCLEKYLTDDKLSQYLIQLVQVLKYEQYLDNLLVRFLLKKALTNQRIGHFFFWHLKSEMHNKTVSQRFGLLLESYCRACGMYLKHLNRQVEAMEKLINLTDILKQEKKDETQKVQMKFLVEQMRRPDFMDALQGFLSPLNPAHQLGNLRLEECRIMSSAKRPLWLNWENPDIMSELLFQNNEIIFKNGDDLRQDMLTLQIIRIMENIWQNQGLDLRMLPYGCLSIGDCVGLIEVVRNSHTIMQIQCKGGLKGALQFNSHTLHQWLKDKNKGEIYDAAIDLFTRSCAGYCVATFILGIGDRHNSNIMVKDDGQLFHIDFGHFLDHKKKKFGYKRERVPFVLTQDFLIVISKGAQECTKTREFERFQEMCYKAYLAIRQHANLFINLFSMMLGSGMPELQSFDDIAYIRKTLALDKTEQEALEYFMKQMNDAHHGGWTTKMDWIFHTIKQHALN

| SMILES | IC50 (PI3K alpha) [nM] | IC50 (PI3K beta) [nM] | IC50 (PI3K delta) [nM] | IC50 (mTOR) [nM] | IC50 [1] [nM] | IC50 [2] [nM] | IC50 [3] [nM] | IC50 [4] [nM] |
| --- | --- | --- | --- | --- | --- | --- | --- | --- |
| Cc1ccc(-c2ccc3ncc4c(c3c2)n(-c2cc(C)nn2C)c(=O)n4C)cn1 [Example 7.1, 1-(2,5-Dimethyl-2H-pyrazol-3-yl)-3-methyl-8-(6-methyl-pyridin-3-yl)-1,3-dihydro-imidazo[4,5-c]quinolin-2-one] | 46 | 404 | 68 | 105 |  |  |  |  |
| CCn1c(=O)n(C)c2ncc(-c3ccc4ncc5c(c4c3)n(-c3cn(C)nc3C)c(=O)n5C)cc21 [Example 68, 1-(1,3-Dimethyl-1H-pyrazol-4-yl)-8-(1-ethyl-3-methyl-2-oxo-2,3-dihydro-1H-imidazo[4,5-b]pyridin-6-yl)-3-methyl-1,3-dihydro-imidazo[4,5-c]quinolin-2-one] | 21 | 61 | 29 | 462 | 92 | 71 |  |  |
| COc1nc2cc(-c3ccc4ncc5c(c4c3)n(-c3cn(C)nc3C)c(=O)n5C)cnc2n1C [Example 71, 1-(1,3-Dimethyl-1H-pyrazol-4-yl)-8-(2-methoxy-3-methyl-3H-imidazo[4,5-b]pyridin-6-yl)-3-methyl-1,3-dihydro-imidazo[4,5-c]quinolin-2-one] |  |  | 262 | 564 | 110 | 377 | 37 | 13 |
| CCNc1cc(-c2ccc3ncc4c(c3c2)n(-c2cn(C)nc2C)c(=O)n4C)cnc1Cl [Example 153.2, 8-(6-Chloro-5-ethylamino-pyridin-3-yl)-1-(1,3-dimethyl-1H-pyrazol-4-yl)-3-methyl-1,3-dihydro-imidazo[4,5-c]quinolin-2-one] | 15 | 9 | 3 | < 3 | < 5 | 5 | < 5 |  |
| CCn1cc(-n2c(=O)n(C)c3cnc4ccc(-c5cnc(CO)c(NC)c5)cc4c32)c(C)n1 [Example 158.5, 1-(1-Ethyl-3-methyl-1H-pyrazol-4-yl)-8-(6-hydroxymethyl-5-methylamino-pyridin-3-yl)-3-methyl-1,3-dihydro-imidazo[4,5-c]quinolin-2-one] | 14 | 21 | 7 | 3 |  |  |  |  |
| CNc1ncc(-c2ccc3ncc4c(c3c2)n(-c2cn(C(C)C)nc2C)c(=O)n4C)cc1COC [Example 248.1, 1-(1-Isopropyl-3-methyl-1H-pyrazol-4-yl)-8-(5-methoxymethyl-6-methylamino-pyridin-3-yl)-3-methyl-1,3-dihydro-imidazo[4,5-c]quinolin-2-one] | 20 | 71 | 4 | 113 | 81 | 73 | < 5 |  |
| CCn1cc(-n2c(=O)n(C)c3cnc4ccc(-c5cnc(NC)c(COC)c5)cc4c32)c(C)n1 [Example 248.2, 1-(1-Ethyl-3-methyl-1H-pyrazol-4-yl)-8-(5-methoxymethyl-6-methylamino-pyridin-3-yl)-3-methyl-1,3-dihydro-imidazo[4,5-c]quinolin-2-one] | 8 | 22 | 3 | 15 |  |  |  |  |
| CNc1ncc(-c2ccc3ncc4c(c3c2)n(-c2c(C)nn(C)c2C)c(=O)n4C)cc1COC [Example 248.5, 8-(5-Methoxymethyl-6-methylamino-pyridin-3-yl)-3-methyl-1-(1,3,5-trimethyl-1H-pyrazol-4-yl)-1,3-dihydro-imidazo[4,5-c]quinolin-2-one] | 32 | 144 | 14 | 565 |  |  |  |  |
